Legend:
Assay type in all cases: biochemical
[1] = molecular target: T1, CSF1R kinase (recombinant N-terminal GST-CSF1R, residues L534-C972) (Homo sapiens, UniProt P07333); assay: CSF1R Kinase-Glo assay; settings: 40 μM ATP, 30° C. 180 min, read-out: Enzymatic Assay CSF1R enzyme IC50
T1 construct: Recombinant N-terminal GST-CSF1R (CSF1R residues L534-C972) containing the CSFIR kinase domain; made in house; host or cells: Sf9 insect cells
T1 sequence (P07333 534-972): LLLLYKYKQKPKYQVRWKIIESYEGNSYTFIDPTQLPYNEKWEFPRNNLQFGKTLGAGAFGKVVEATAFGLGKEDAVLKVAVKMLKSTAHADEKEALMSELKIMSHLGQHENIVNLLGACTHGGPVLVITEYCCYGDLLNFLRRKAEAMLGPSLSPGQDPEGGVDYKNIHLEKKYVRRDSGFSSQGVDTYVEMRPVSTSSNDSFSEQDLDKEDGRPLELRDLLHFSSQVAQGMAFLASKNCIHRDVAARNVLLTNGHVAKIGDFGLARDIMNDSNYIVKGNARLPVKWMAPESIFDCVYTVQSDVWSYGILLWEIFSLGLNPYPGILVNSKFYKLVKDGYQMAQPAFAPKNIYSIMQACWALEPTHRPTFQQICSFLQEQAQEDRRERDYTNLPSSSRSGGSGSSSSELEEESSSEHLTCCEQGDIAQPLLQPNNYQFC
Method in brief: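 Sf9-expressed, purified GST-CSF1R kinase domain (600 ng) was incubated with compound for 180 min at 30° C. with 40 μM ATP and 20 μM poly(Glu,Tyr) 4:1 at pH 7.4 (Mn2+/Mg2+). Remaining ATP was read by Kinase-Glo Plus luminescence. IC50 was fitted from percentage inhibition versus no-compound controls across a concentration range.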

CSF1R = CSF1R (Homo sapiens, UniProt P07333); assay: HotSpot kinase profiling, CSF1R; settings: HotSpot assay, 10 μM ATP
Method: (§1) A study was conducted to determine kinase selectivity of compounds 27 and 67. More specifically, each compound was tested for inhibitory activity of CSF1R kinase, as compared to that of seven other kinases, i.e., Aurora A, Aurora B, tyrosine-protein kinase Kit (c-Kit), fms-like tyrosine kinase 3 (FLT3), platelet-derived growth factor receptor (PDGFR) A, PDGFR B, and discoidin domain receptor tyrosine kinase 1 (DDR1).
(§2) In vitro profiling of the kinase panel was performed at Reaction Biology Corporation (www.reactionbiology.com, Malvern, PA) using the “HotSpot” assay platform. Briefly, specific kinase/substrate pairs along with required cofactors were prepared in a reaction buffer containing 20 mM Hepes pH 7.5, 10 mM MgCl2, 1 mM EGTA, 0.02% Brij35, 0.02 mg/ml BSA, 0.1 mM NA3VO4, 2 mM DTT, and 1% DMSO. Compound 27 or 67 was added. 20 minutes later, a mixture of ATP (Sigma, St. Louis MO) and ^33P ATP (Perkin Elmer, Waltham MA) was added to the resulting reaction solution to give a final concentration of 10 μM. The reaction was carried out at room temperature for 120 min., followed by spotting the reaction solution onto P81 ion exchange filter paper (Whatman Inc., Piscataway, NJ). Unbound phosphate was removed by extensive washing filters in 0.75% phosphoric acid. […] Selectivity, expressed as an IC50 ratio, was determined by dividing the IC50 value of a kinase, e.g., Aurora A, by that of CSF1R.

[2] = molecular target: T2, fms-like tyrosine kinase 3 (FLT3) (Homo sapiens, UniProt P36888); assay: HotSpot kinase profiling, FLT3; settings: HotSpot assay, 10 μM ATP; IC50 of kinase divided by that of CSF1R
T2 sequence (P36888 27-993): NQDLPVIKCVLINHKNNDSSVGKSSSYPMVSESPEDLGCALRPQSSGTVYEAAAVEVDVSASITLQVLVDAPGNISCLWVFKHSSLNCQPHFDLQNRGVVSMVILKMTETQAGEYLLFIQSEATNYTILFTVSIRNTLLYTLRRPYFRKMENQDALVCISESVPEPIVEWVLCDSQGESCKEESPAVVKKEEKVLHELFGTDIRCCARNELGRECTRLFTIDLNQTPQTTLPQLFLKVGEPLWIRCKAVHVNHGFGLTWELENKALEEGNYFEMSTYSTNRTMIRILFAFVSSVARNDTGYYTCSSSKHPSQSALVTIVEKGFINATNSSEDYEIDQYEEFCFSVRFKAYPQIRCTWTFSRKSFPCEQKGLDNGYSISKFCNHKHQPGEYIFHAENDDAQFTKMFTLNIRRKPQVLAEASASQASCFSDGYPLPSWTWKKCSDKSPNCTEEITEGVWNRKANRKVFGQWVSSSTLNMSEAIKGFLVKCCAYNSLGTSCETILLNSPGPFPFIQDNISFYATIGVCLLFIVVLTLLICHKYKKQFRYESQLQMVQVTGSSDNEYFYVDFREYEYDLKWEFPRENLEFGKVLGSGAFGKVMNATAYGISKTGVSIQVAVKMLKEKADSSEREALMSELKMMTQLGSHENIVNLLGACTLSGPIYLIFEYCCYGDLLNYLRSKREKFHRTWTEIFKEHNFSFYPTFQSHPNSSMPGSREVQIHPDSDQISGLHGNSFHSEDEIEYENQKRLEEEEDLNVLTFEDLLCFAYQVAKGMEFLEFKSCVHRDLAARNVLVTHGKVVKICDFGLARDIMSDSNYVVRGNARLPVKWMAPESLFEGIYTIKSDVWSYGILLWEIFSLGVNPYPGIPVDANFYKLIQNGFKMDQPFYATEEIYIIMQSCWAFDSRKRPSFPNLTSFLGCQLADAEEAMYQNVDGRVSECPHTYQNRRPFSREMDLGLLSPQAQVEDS
Method: as §1, §2

[3] = molecular target: discoidin domain receptor tyrosine kinase 1 (DDR1) (Homo sapiens, UniProt Q08345); assay: HotSpot kinase profiling, DDR1; settings: HotSpot assay, 10 μM ATP; IC50 of kinase divided by that of CSF1R
Method: as §1, §2

Sequence of discoidin domain receptor tyrosine kinase 1 (DDR1) (Q08345 19-913): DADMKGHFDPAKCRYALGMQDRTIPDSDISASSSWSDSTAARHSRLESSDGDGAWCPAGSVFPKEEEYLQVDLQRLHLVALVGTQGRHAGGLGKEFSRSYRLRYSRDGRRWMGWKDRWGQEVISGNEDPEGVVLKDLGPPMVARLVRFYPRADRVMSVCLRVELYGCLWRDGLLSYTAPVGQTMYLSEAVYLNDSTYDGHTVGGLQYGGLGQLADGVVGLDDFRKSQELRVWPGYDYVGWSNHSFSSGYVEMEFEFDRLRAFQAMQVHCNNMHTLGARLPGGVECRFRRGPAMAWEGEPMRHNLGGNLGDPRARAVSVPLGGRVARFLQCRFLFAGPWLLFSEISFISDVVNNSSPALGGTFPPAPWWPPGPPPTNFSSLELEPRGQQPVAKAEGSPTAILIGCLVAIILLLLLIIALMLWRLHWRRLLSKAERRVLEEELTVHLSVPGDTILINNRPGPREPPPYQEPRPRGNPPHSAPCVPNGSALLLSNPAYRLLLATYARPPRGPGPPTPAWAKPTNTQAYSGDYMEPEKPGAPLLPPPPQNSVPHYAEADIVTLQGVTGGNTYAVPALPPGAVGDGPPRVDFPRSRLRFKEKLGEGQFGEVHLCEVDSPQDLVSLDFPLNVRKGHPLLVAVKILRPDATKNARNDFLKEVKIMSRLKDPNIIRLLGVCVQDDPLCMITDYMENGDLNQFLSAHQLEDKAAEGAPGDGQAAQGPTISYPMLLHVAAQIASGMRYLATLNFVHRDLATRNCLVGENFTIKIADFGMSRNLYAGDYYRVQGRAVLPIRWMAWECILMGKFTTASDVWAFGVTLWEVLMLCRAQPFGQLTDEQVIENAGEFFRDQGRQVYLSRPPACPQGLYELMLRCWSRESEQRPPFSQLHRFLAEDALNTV
Sequence of CSF1R (P07333 20-972): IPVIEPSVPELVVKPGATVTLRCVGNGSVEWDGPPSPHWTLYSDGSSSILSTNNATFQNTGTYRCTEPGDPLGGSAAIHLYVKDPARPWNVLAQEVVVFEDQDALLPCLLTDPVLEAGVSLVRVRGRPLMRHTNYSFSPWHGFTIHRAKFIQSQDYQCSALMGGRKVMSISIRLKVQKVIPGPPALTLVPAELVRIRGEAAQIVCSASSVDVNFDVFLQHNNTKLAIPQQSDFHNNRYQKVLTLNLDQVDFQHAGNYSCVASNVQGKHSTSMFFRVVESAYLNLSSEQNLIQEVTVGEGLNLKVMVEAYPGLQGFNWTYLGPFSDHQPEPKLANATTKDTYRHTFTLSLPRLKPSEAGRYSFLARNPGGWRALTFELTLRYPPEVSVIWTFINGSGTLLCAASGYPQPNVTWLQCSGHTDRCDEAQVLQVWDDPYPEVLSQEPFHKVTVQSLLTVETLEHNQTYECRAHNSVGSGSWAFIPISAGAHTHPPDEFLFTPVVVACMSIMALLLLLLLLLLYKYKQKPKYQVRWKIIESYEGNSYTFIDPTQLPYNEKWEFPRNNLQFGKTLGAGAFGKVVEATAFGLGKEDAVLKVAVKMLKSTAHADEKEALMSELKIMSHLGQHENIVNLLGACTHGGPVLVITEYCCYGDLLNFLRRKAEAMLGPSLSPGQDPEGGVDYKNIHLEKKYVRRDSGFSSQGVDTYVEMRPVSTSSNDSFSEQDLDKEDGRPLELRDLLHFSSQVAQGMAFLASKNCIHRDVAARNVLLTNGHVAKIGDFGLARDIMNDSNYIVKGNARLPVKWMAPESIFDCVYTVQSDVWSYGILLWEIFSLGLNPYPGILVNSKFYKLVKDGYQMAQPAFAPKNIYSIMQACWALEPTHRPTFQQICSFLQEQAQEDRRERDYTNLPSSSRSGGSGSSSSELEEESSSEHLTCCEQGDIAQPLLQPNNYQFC

SMILES | IC50 [1] | IC50 (CSF1R) | IC50 ratio FLT3 / CSF1R [2] | IC50 ratio DDR1 / CSF1R [3]
CN(C)c1ccc2c(Oc3ccc(NC(=O)NCc4ccc(C(F)(F)F)nc4)cc3)ncnc2c1 [Compound 27, 1-(4-((7-(dimethylamino)quinazolin-4-yl)oxy)phenyl)-3-((6-(trifluoromethyl)pyridin-3-yl)methyl)urea] | < 20 nM | 0.534 nM | +++ (+++: 1000 > IC50 ratio > 100) | +++ (+++: 1000 > IC50 ratio > 100)
CN(C)c1ccc2c(Oc3ccc4c(ccn4C(=O)NCc4ccc(C(F)(F)F)nc4)c3)ncnc2c1 [Compound 67, 5-((7-(dimethylamino)quinazolin-4-yl)oxy)-N-((6-(trifluoromethyl)pyridin-3-yl)methyl)-1H-indole-1-carboxamide] | 20 to 100 nM | 5.69 nM | +++ (+++: 1000 > IC50 ratio > 100) | + (+: 10 > IC50 ratio > 1)

Reference: US12668584B2, “Heterocyclic compounds as kinase inhibitors for therapeutic uses” (National Health Research Institutes, priority 2019, dated 2026)
